This note sets out measurements from patent publication US9301923B2, “Lipids, lipid compositions, and methods of using them” (NOVARTIS AG, priority 2009, dated 2016).

A short description of data set [1]: pKa of the lipid by TNS fluorescence. The format is physicochemical. To be noted: pKa. The gist of the method:
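Lipid dissolved in ethanol (2 mM stock) and measured with TNS across eight buffers of differing pH, in water at standard temperature and pressure. Normalized fluorescence intensity plotted against pH and points joined by a smooth line to derive pKa, precise to about 0.2 units.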

The subject of data set [2] is PLK-1 mRNA in Hep3B tumors. Briefly: Hep3B tumor study, PLK-1 mRNA KD in tumor tissue. The format is in vivo, human. To be noted: Hep3B tumor, mouse, i.v., LNP composition as in the source. The text has this:
Formulated siRNAs are made up of double stranded siRNA sequences specific to a target mRNA sequence, and are in the form of lipid nucleotid particles (LNPs) containing cationic lipids, stealth lipids and neutral lipids, as provided in the Examples below. The siRNA construct for use in targeting the liver is specific to Factor VII. The siRNA construct for use in targeting tumors is specific to PLK1-424, which is published by Judge et al., See, J Clin Invest. 2009 March; 119(3):661-73; doi: 10.1172/JCI37515). • 1. FVII siRNA duplex sequence
Hep3B tumors are established in female nude mice by sc injection of 7×10^6 cells in 100 ul PBS into the left flank. Mice are randomized into treatment groups 10-14 days after seeding as tumors reached an average size of 100 mm^3. siRNA formulated LNP formulations are administered at various dose levels intravenously via the lateral tail vein calculated on a mg siRNAs/kg basis according to individual animal weights (10 ml/kg injection volume). Mice are euthanized by CO2 inhalation at various time points and the tumors are harvested for mRNA quantitation. Lipids with a wide range of pKa (5.3-6.6) are used in the LNP formulations. Tumors are measured in 2 dimensions (width×length) to assess tumor growth using digital calipers. Tumor volume is calculated using the equation [a×b×b/2], where a equals the largest diameter and b equals the smallest diameter.
About 30-50 mg tumor tissue is homogenized in tissue lysis buffer in a Qiagen homogenizer followed by centrifugation to clarify lysates. Total RNA is isolated using RNeasy isolation kit (catalog number 74106) according to the manufacture's protocol. PLK-1 mRNA is analyzed by quantitative PCR and normalized to human GAPDH. Applied Biosystems human PLK-1 gene expression assay Hs00983229_m1 and human GAPDH endogenous control cat number 4326317E are used for mRNA detection.
The pKa in all tables refers to the pKa of the cationic lipid. Where multiple doses are indicated (e.g., 3×5), the first number indicates the number of doses given and the second number indicates the amount per dose in mg siRNA (biologically active agent) per kg mouse. In general the multiple doses are administered at 24 hour intervals, and tissues for mRNA quantitation are harvested 24 hours after the last dose.

Data set [3] in a line: Particle size and PDI by dynamic light scattering (Malvern Zetasizer). The format is physicochemical. The gist of the method: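 Nanoparticles diluted in PBS to a count rate of about 200-400 kcts and measured by dynamic light scattering; size given as intensity-weighted average diameter, with polydispersity index from the same measurement.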
For the next data set, the system named is Factor VII. In words: Factor VII activity assay, in vivo liver delivery of FVII siRNA LNP. Details: species or system mouse. To be noted: for FVII inhib %: ~48 h. The essentials: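 Female CD-1 mice (~25 g) given a single i.v. tail-vein dose of FVII siRNA in LNPs (cationic, stealth, neutral lipids), dosed as mg siRNA/kg. Plasma collected ~48 h post-injection; FVII activity read against a standard curve from pooled vehicle-control plasma.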

Where [4] appears, read: LNP formulation with PLK1 siRNA, helper, neutral and stealth lipid, molar ratio and N/P as in the table.
The mark [5] stands for this setting: dose 3 mg/kg siRNA i.v., lipid/no neutral lipid/CHOL/AVANTI 880150P 50/0/46/4, N/P 3.43.
Where [6] appears, read: lipid/no neutral lipid/CHOL/AVANTI 880150P 50/0/46/4, N/P 3.43.
[7] abbreviates: dose 1 mg/kg siRNA i.v., lipid/no neutral lipid/CHOL/GM-020 NOF 60/0/36/4, N/P 3.
Setting [8] is: lipid/no neutral lipid/CHOL/GM-020 NOF 60/0/36/4, N/P 3.
The mark [9] stands for this setting: dose 3 mg/kg siRNA i.v., lipid/DSPC/CHOL/AVANTI 880150P 50/28/18/4, N/P 3.43.
[10] abbreviates: lipid/DSPC/CHOL/AVANTI 880150P 50/28/18/4, N/P 3.43.

For orientation: pKa means the negative logarithm of the acid dissociation constant. `CCCCC/C=C\C/C=C\CCCCCCCCOCC(CN1CCOCC1)OCCCOCCCO[C@H]1CC[C@@]2(C)C(=CC[C@H]3[C@@H]4CC[C@H]([C@H](C)CCCC(C)C)[C@@]4(C)CC[C@@H]32)C1` (stereo partly drawn) [E0093] showed a pKa in data set [1] of 4.85. Further, the PLK1 inhibition % in data set [2] (1 × 10 mg siRNA/kg) turned out to be 2%. The “Final size (nm)” value in data set [3] (setting [4]) is recorded as 82.42 nm.
Consider `CCCCCCCC/C=C\CCCCCCCCOCC(CN1CCOCC1)OCCOCCOC(=O)CCC(=O)O[C@H]1CC[C@@]2(C)C(=CC[C@H]3[C@@H]4CC[C@H]([C@H](C)CCCC(C)C)[C@@]4(C)CC[C@@H]32)C1` (stereo partly drawn) [E0152], for which the pKa in data set [1] stood at 5.38. Besides, the PLK1 inhibition % in data set [2] (1 × 1 mg siRNA/kg) was 18%. For the same compound, in data set [3] (setting [4]), the “Final size (nm)” value was determined as 121.3 nm.
The corresponding values for `CCCCC/C=C\C/C=C\CCCCCCCCOCC(CN1CCCCC1)OCCCOC(=O)CCC(=O)O[C@H]1CC[C@@]2(C)C(=CC[C@H]3[C@@H]4CC[C@H]([C@H](C)CCCC(C)C)[C@@]4(C)CC[C@@H]32)C1` (stereo partly drawn) [E0179] are 5.95, 53% and 114.6 nm.
For `CCCCC/C=C\C/C=C\CCCCCCCCOCC(CN1CCC(C)(C)C1)OCCOCCO[C@H]1CC[C@@]2(C)C(=CC[C@H]3[C@@H]4CC[C@H]([C@H](C)CCCC(C)C)[C@@]4(C)CC[C@@H]32)C1` (stereo partly drawn) [E0026], the FVII inhib % with Factor VII (setting [5]) came to 95.1%. The compound further returned a PLK1 inhibition % in data set [2] (1 × 5 mg siRNA/kg) of 75%. Also, the “Final size (nm)” value in data set [3] (setting [4]) was 105.8 nm; in data set [3] (setting [6]), 87 nm. This compound also yielded a PDI in data set [3] (setting [6]) of 0.23.
`CCCCCCCC/C=C\CCCCCCCCOCC(CN1CCCC1C)OCCO[C@H]1CC[C@@]2(C)C(=CC[C@H]3[C@@H]4CC[C@H]([C@H](C)CCCC(C)C)[C@@]4(C)CC[C@@H]32)C1` (stereo partly drawn) [E0066] displayed a pKa in data set [1] of 6.5. For the same compound, in the data set on Factor VII (setting [7]), the FVII inhib % was 44.2%. Besides, in data set [3] (setting [8]), the “Final size (nm)” value is recorded as 140.7 nm and the PDI was found to be 0.071.
In the case of `CCCCCCCC/C=C\CCCCCCCCOCC(CN1CCCC1C)OCCCOCCCO[C@H]1CC[C@@]2(C)C(=CC[C@H]3[C@@H]4CC[C@H]([C@H](C)CCCC(C)C)[C@@]4(C)CC[C@@H]32)C1` (stereo partly drawn) [E0094], the pKa in data set [1] worked out at 5.91. Besides, the FVII inhib % in the data set on Factor VII (setting [7]) was found to be 36.3%. For the same compound, in data set [3] (setting [8]), the “Final size (nm)” value was 115.5 nm and the PDI is given as 0.076.
With `CCCCC/C=C\C/C=C\CCCCCCCCOCC(CN1CCC(N(C)C)C1)OCCOCCO[C@H]1CC[C@@]2(C)C(=CC[C@H]3[C@@H]4CC[C@H]([C@H](C)CCCC(C)C)[C@@]4(C)CC[C@@H]32)C1` (stereo partly drawn) [E0039], the pKa in data set [1] came to 5.88. For the same compound, the FVII inhib % with Factor VII (setting [9]) is −6.7%; with Factor VII (setting [5]), −5.4%. The “Final size (nm)” value in data set [3] (setting [10]) amounted to 113 nm; in data set [3] (setting [6]) it was 94 nm. Also, the results for the PDI in data set [3] (setting [10]) and in data set [3] (setting [6]) were 0.15 and 0.06, respectively.
Regarding `CCCCC/C=C\C/C=C\CCCCCCCCOCC(CN1CCCCCC1)OCCOCCO[C@H]1CC[C@@]2(C)C(=CC[C@H]3[C@@H]4CC[C@H]([C@H](C)CCCC(C)C)[C@@]4(C)CC[C@@H]32)C1` (stereo partly drawn) [E0017], in data set [1], the pKa was 6.46. Further, the FVII inhib % in the data set with Factor VII (dose 1 mg/kg siRNA i.v., lipid/DSPC/CHOL/AVANTI 880150P 50/28/18/4, N/P 3.43) is 53.8%; in the data set with Factor VII (setting [9]), 98.3%; in the data set on Factor VII (setting [5]), 96.5%. Besides, the “Final size (nm)” value in data set [3] (setting [10]) is given as 106 nm; in data set [3] (setting [6]), 97 nm. The PDI is listed as 0.17 in data set [3] (setting [10]) and 0.19 in data set [3] (setting [6]).
`CCCCC/C=C\C/C=C\CCCCCCCCOCC(CN1CCOCCOCCOCC1)OCCOCCO[C@H]1CC[C@@]2(C)C(=CC[C@H]3[C@@H]4CC[C@H]([C@H](C)CCCC(C)C)[C@@]4(C)CC[C@@H]32)C1` (stereo partly drawn) [E0030] yielded a pKa in data set [1] of 5.38. Moreover, in the data set with Factor VII (setting [5]), the FVII inhib % is recorded as 12.4%. Besides, in data set [3] (setting [6]), the “Final size (nm)” value is on record as 155 nm and the PDI came out at 0.08.
On to `CCCCC/C=C\C/C=C\CCCCCCCCOCC(CN1CCCC1)OCCOCCO[C@H]1CC[C@@]2(C)C(=CC[C@H]3[C@@H]4CC[C@H]([C@H](C)CCCC(C)C)[C@@]4(C)CC[C@@H]32)C1` (stereo partly drawn) [E0015], for which, in data set [1], the pKa amounted to 7.39. In addition, the FVII inhib % with Factor VII (setting [9]) is listed as 30.7%; in the data set on Factor VII (setting [5]), 77.1%. For the same compound, the “Final size (nm)” value amounted to 164 nm in data set [3] (setting [10]) and 130 nm in data set [3] (setting [6]). Besides, the PDI in data set [3] (setting [10]) was 0.06; in data set [3] (setting [6]), 0.05.
For `CCCCC/C=C\C/C=C\CCCCCCCCCCC(CN(C)C)OC(=O)CCC(=O)O[C@H]1CC[C@@]2(C)C(=CCC3C2CC[C@@]2(C)C3CC[C@@H]2[C@H](C)CCCC(C)C)C1` (stereo partly drawn) [E0174, reference compound], the pKa in data set [1] came out at 5.15. The FVII inhib % was 63.2% with Factor VII (setting [9]) and 3.5% in the data set with Factor VII (setting [5]). Further, the results for the “Final size (nm)” value in data set [3] (setting [10]) and in data set [3] (setting [6]) were 117 nm and 90 nm, respectively. Further, the values for the PDI in data set [3] (setting [10]) and in data set [3] (setting [6]) were 0.23 and 0.21, respectively.
In data set [1], `CCCCC/C=C\C/C=C\CCCCCCCCOCC(CN1CCOCC1)OCCCCO[C@H]1CC[C@@]2(C)C(=CCC3C2CC[C@@]2(C)C3CC[C@@H]2[C@H](C)CCCC(C)C)C1` (stereo partly drawn) [E0028] came in with a pKa of 4.8. In addition, the figures for the FVII inhib % in the data set with Factor VII (setting [9]) and in the data set with Factor VII (setting [5]) were 12.5% and 38.7%, respectively. Moreover, the results for the “Final size (nm)” value in data set [3] (setting [10]) and in data set [3] (setting [6]) were 129 nm and 68 nm, respectively. Also, the PDI in data set [3] (setting [10]) was 0.216; in data set [3] (setting [6]), 0.125.
In data set [1], `CCCCC/C=C\C/C=C\CCCCCCCCOCC(CN(C)C)OCCCCO[C@H]1CC[C@@]2(C)C(=CCC3C2CC[C@@]2(C)C3CC[C@@H]2[C@H](C)CCCC(C)C)C1` (stereo partly drawn) [E0173, 3-Dimethylamino-2-(Cholest-5-en-3-beta-oxybutan-4-oxy) -1-(cis,cis-9,12-octadecadienoxy)propane, reference compound] displayed a pKa of 6.73. Besides, the FVII inhib % with Factor VII (dose 1 mg/kg siRNA i.v., lipid/no neutral lipid/CHOL/AVANTI 880150P 50/0/46/4, N/P 3.43) was found to be 87.4%; in the data set with Factor VII (setting [9]), 90.9%; with Factor VII (setting [5]), 98.5%. In addition, the “in vivo Factor VII inhibition” value with Factor VII (formulation containing the cationic lipid, RNAi construct specific to Factor VII, liver) is listed as 98.5%. Further, the “Final size (nm)” value in data set [3] (setting [10]) was found to be 98 nm; in data set [3] (setting [6]), 76 nm. The figures for the PDI in data set [3] (setting [10]) and in data set [3] (setting [6]) were 0.17 and 0.16, respectively.
For the compound `CCCCC/C=C\C/C=C\CCCCCCCCOCC(CN1CC[C@@H]2CCCC[C@@H]2C1)OCCOCCO[C@H]1CC[C@@]2(C)C(=CCC3C2CC[C@@]2(C)C3CC[C@@H]2[C@H](C)CCCC(C)C)C1` (stereo partly drawn) [E0021], in data set [1], the pKa came out at 5.13. Also, the values for the FVII inhib % with Factor VII (setting [9]) and with Factor VII (setting [5]) were 24.5% and 52.8%, respectively. Also, the “Final size (nm)” value in data set [3] (setting [10]) is listed as 85 nm; in data set [3] (setting [6]) it was 72 nm. Also, the PDI in data set [3] (setting [10]) was determined as 0.22; in data set [3] (setting [6]), 0.184.
